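Values below derive from 48-hour exposures of cells grown in 96-well plates, with endpoints linearly interpolated between the two concentrations bracketing the appropriate inhibition level. GI50 marks 50% less growth. TGI: total growth inhibition.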
Assays:
Test in all cases: inhibition of tumour cell growth, NCI panel, 48 h
[1] = system: MDA-N
[2] = system: 786-0 renal
[3] = system: A498 renal
[4] = system: A549 NSCLC
[5] = system: ACHN renal
[6] = system: BT-549 breast
[7] = system: CAKI-1 renal
[8] = system: CCRF-CEM leukemia
[9] = system: COLO 205 colon
[10] = system: DU-145 prostate
[11] = system: EKVX NSCLC
[12] = system: HCC-2998 colon
[13] = system: HCT-116 colon
[14] = system: HCT-15 colon
[15] = system: HL-60(TB) leukemia
[16] = system: HOP-92 NSCLC
[17] = system: IGROV1 ovarian
[18] = system: K-562 leukemia
[19] = system: KM12 colon
[20] = system: LOX IMVI melanoma
[21] = system: M14 melanoma
[22] = system: MALME-3M melanoma
[23] = system: MCF7 breast
[24] = system: MDA-MB-231 breast
[25] = system: MDA-MB-435
[26] = system: MOLT-4 leukemia
[27] = system: NCI-H226 lung
[28] = system: NCI-H23 lung
[29] = system: NCI-H460 lung
[30] = system: NCI-H522 lung
[31] = system: NCI/ADR-RES ovarian
[32] = system: OVCAR-4 ovarian
[33] = system: OVCAR-5 ovarian
[34] = system: OVCAR-8 ovarian
[35] = system: RPMI-8226 leukemia
[36] = system: RXF 393 renal
[37] = system: SF-295 CNS
[38] = system: SF-539 CNS
[39] = system: SK-MEL-28 melanoma
[40] = system: SK-MEL-5 melanoma
[41] = system: SK-OV-3 ovarian
[42] = system: SN12C renal
[43] = system: SNB-19 CNS
[44] = system: SNB-75 CNS
[45] = system: SR leukemia
[46] = system: SW-620 colon
[47] = system: TK-10 renal
[48] = system: U251 CNS
[49] = system: UACC-257 melanoma
[50] = system: UACC-62 melanoma
[51] = system: UO-31 renal
[52] = system: HOP-62 NSCLC
[53] = system: HS 578T breast
[54] = system: HT29 colon
[55] = system: OVCAR-3 ovarian
[56] = system: PC-3 prostate
[57] = system: SF-268 CNS
[58] = system: SK-MEL-2 melanoma
[59] = system: T-47D breast

N=C1C=C/[N+](=C\C=CCO)C([O-])=N1
GI50 [1]: > 1000 µM
TGI [1]: > 1000 µM

Cc1ccc(S(=O)(=O)Nn2c(S)c(C#N)c(-c3ccc(N(C)C)cc3)c(C#N)c2=O)cc1
TGI [2]: > 100 µM
TGI [3]: 80.6 µM
TGI [4]: > 100 µM
TGI [5]: > 100 µM
TGI [6]: 67.3 µM
TGI [7]: > 100 µM
TGI [8]: > 100 µM
TGI [9]: 67.8 µM
TGI [10]: > 100 µM
TGI [11]: > 100 µM
TGI [12]: > 100 µM
TGI [13]: 90.5 µM
TGI [14]: 56.5 µM
TGI [15]: 79.6 µM
TGI [16]: > 100 µM
TGI [17]: 38.5 µM
TGI [18]: > 100 µM
TGI [19]: 52.2 µM
TGI [20]: > 100 µM
TGI [21]: > 100 µM
TGI [22]: 80.6 µM
TGI [23]: > 100 µM
TGI [24]: > 100 µM
TGI [25]: 60 µM
TGI [1]: > 100 µM
TGI [26]: > 100 µM
TGI [27]: 34.6 µM
TGI [28]: 61.1 µM
TGI [29]: 39.3 µM
TGI [30]: 37.8 µM
TGI [31]: 97.2 µM
TGI [32]: 43.1 µM
TGI [33]: > 100 µM
TGI [34]: 44.9 µM
TGI [35]: 91.5 µM
TGI [36]: 88.3 µM
TGI [37]: > 100 µM
TGI [38]: 40.7 µM
TGI [39]: 77.4 µM
TGI [40]: 45.3 µM
TGI [41]: > 100 µM
TGI [42]: 68.2 µM
TGI [43]: > 100 µM
TGI [44]: > 100 µM
TGI [45]: > 100 µM
TGI [46]: 37.7 µM
TGI [47]: 76.2 µM
TGI [48]: 55.6 µM
TGI [49]: > 100 µM
TGI [50]: > 100 µM
TGI [51]: 44.8 µM

Nc1cccc(CCN2CCN(CCCc3ccccc3)CC2)c1
TGI [2]: 37.4 µM
TGI [3]: > 100 µM
TGI [4]: > 100 µM
TGI [5]: > 100 µM
TGI [6]: > 100 µM
TGI [7]: > 100 µM
TGI [8]: > 100 µM
TGI [9]: 34.8 µM
TGI [10]: > 100 µM
TGI [11]: > 100 µM
TGI [12]: 28.2 µM
TGI [13]: 36.7 µM
TGI [14]: 38.2 µM
TGI [15]: > 100 µM
TGI [52]: > 100 µM
TGI [16]: 53.8 µM
TGI [53]: > 100 µM
TGI [54]: 46.5 µM
TGI [17]: > 100 µM
TGI [18]: > 100 µM
TGI [19]: 81.5 µM
TGI [20]: 33.1 µM
TGI [21]: 32.3 µM
TGI [22]: 38 µM
TGI [23]: 36.4 µM
TGI [24]: > 100 µM
TGI [25]: 36.9 µM
TGI [26]: > 100 µM
TGI [27]: > 100 µM
TGI [28]: > 100 µM
TGI [29]: 71.4 µM
TGI [30]: 30.1 µM
TGI [31]: > 100 µM
TGI [55]: 41.2 µM
TGI [32]: > 100 µM
TGI [33]: > 100 µM
TGI [34]: 63.2 µM
TGI [56]: > 100 µM
TGI [35]: > 100 µM
TGI [36]: 52.2 µM
TGI [57]: > 100 µM
TGI [37]: 70 µM
TGI [38]: 40.6 µM
TGI [58]: > 100 µM
TGI [39]: 88.4 µM
TGI [40]: 34.3 µM
TGI [41]: > 100 µM
TGI [42]: > 100 µM
TGI [43]: > 100 µM
TGI [44]: > 100 µM
TGI [45]: 65.9 µM
TGI [46]: > 100 µM
TGI [59]: 52.6 µM
TGI [47]: > 100 µM
TGI [48]: > 100 µM
TGI [49]: 65.3 µM
TGI [50]: 52.7 µM
TGI [51]: > 100 µM

Source: PubChem BioAssay (NCI)
